Test results published in patent US9216968B2, “Heterocyclic derivative and pharmaceutical drug” (NIPPON SHINYAKU CO., LTD., priority 2011, dated 2015).
Counter-ions that a name gives are not always drawn.

Key:
A549 cells = assay: Inhibition of PGE2 production in A549 cell (IL-1β stimulated); format: cell-based, human; conditions: Homo sapiens, A549, 24 h, IL-1β 5 ng/well, PGE2 in culture medium
In short: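 A549 cells preincubated 60 min with compound in RPMI/3% FBS (final DMSO 0.10), then stimulated with IL-1β (5 ng/well) for 24 h at 37 °C. PGE2 measured by HTRF and PGF2α by EIA in medium; IC50 from inhibition relative to stimulated minus unstimulated production.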

human mPGES-1 = human mPGES-1 (Homo sapiens (Human), UniProt O14684); assay: mPGES-1 inhibiting activity (microsome fractions, PGE2 by HTRF); format: biochemical; conditions: microsomes from CHO-K1 cells transfected with human mPGES-1; PGH2 1 μM, 4° C., 60 seconds; read-out: mPGES-1 Inhibition IC50
human mPGES-1, sequence (O14684 whole entry): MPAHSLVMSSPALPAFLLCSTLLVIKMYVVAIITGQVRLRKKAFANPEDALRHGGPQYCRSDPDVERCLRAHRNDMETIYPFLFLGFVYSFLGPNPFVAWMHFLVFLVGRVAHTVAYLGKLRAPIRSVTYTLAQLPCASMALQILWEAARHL
In short: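 PGE2 formation read by HTRF after 60 s at 4 °C with 1 μM PGH2 substrate, following 20 min compound preincubation (1% DMSO) with human mPGES-1 microsomes from transfected CHO-K1 cells. Buffer: potassium phosphate, reduced glutathione, pH 7.4; IC50 from activity relative to enzyme-free blank.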

Question: Which IC50 (A549 cells) does the source give for `Cc1c(Cl)cccc1NC(=O)c1cc(NC(=O)c2ccccc2C(F)(F)F)cc2[nH]c(NCCN(C)C)nc12` [Example 147, N-(3-Chloro-2-methylphenyl)-2-{[2-(dimethylamino)ethyl]amino}-6-({[2-(trifluoromethyl)phenyl]carbonyl}amino)-1H-benzimidazole-4-carboxamide hydrochloride] here?
Answer: 186 nM

Question: And the IC50 (human mPGES-1)?
Answer: 15.8 nM

Question: How did the IC50 (A549 cells) turn out when `CCOCc1nc2c(C(=O)NCc3ncccc3C(F)(F)F)cc(NC(=O)c3ccccc3C(F)(F)F)cc2[nH]1` [Example 80, 2-(Ethoxymethyl)-6-({[2-(trifluoromethyl)phenyl]carbonyl}amino)-N-{[3-(trifluoromethyl)pyridin-2-yl]methyl}-1H-benzimidazole-4-carboxamide dihydrochloride] was run?
Answer: 1250 nM

Question: What about the IC50 (human mPGES-1) of the same compound?
Answer: 29.4 nM

Question: For `COC(C)(C)CNc1nc2c(C(=O)Nc3cccc(Cl)c3C)cc(NC(=O)c3c(F)cccc3Cl)cc2[nH]1` [Example 197, 6-{[(2-Chloro-6-fluorophenyl)carbonyl]amino}-N-(3-chloro-2-methylphenyl)-2-[(2-methoxy-2-methylpropyl)amino]-1H-benzimidazole-4-carboxamide hydrochloride], which IC50 (A549 cells) is on record?
Answer: 34.4 nM

Question: What about the IC50 (human mPGES-1) of the same compound?
Answer: 5.2 nM

Question: What does the source list for `COCc1nc2c(C(=O)Nc3cccc(Cl)c3C)cc(NC(=O)c3cc(C)ccc3C(F)(F)F)cc2[nH]1` [Example 109, N-(3-Chloro-2-methylphenyl)-2-(methoxymethyl)-6-({[5-methyl-2-(trifluoromethyl)phenyl]carbonyl}amino)-1H-benzimidazole-4-carboxamide hydrochloride]?
Answer: IC50 (A549 cells): 8.7 nM; IC50 (human mPGES-1): 7.8 nM

Question: How did the IC50 (A549 cells) turn out when `COCc1nc2c(C(=O)Nc3c(C)cccc3Cl)cc(NC(=O)c3ccccc3C(F)(F)F)cc2[nH]1` [Example 43, N-(2-Chloro-6-methylphenyl)-2-(methoxymethyl)-6-({[2-(trifluoromethyl)phenyl]carbonyl}amino)-1H-benzimidazole-4-carboxamide hydrochloride] was run?
Answer: 438 nM

Question: What about the IC50 (human mPGES-1) of the same compound?
Answer: 70.7 nM

Question: Which results are given for `Cc1c(Cl)cccc1NC(=O)c1cc(NC(=O)c2c(F)cccc2Br)cc2[nH]c(N(C)C)nc12` [Example 186, 6-{[(2-Bromo-6-fluorophenyl)carbonyl]amino}-N-(3-chloro-2-methylphenyl)-2-(dimethylamino)-1H-benzimidazole-4-carboxamide hydrochloride]?
Answer: IC50 (A549 cells): 13.9 nM; IC50 (human mPGES-1): 6.1 nM

Question: Which results are given for `Cc1c(Cl)cccc1NC(=O)c1cc(NC(=O)c2ccccc2C(F)(F)F)cc2[nH]c(C3CN(C(=O)OC(C)(C)C)C3)nc12` [Example 61, tert-Butyl 3-{4-[(3-chloro-2-methylphenyl)carbamoyl]-6-({[2-(trifluoromethyl)phenyl]carbonyl}amino)-1H-benzimidazol-2-yl}azetidine-1-carboxylate]?
Answer: IC50 (A549 cells): 66.7 nM; IC50 (human mPGES-1): 3.2 nM

Question: `CNCc1nc2c(C(=O)Nc3cccc(Cl)c3C)cc(NC(=O)c3ccccc3C(F)(F)F)cc2[nH]1` [Example 62, N-(3-Chloro-2-methylphenyl)-2-[(methylamino)methyl]-6-({[2-(trifluoromethyl)phenyl]carbonyl}amino)-1H-benzimidazole-4-carboxamide dihydrochloride] was tested. Which IC50 (A549 cells) did it give?
Answer: 51.6 nM

Question: What about the IC50 (human mPGES-1) of the same compound?
Answer: 11 nM

Question: What does the source list for `CCn1cnc2c(C(=O)NCc3ccccc3C(F)(F)F)cc(NC(=O)c3ccccc3C(F)(F)F)cc21` [Example 51, 1-Ethyl-N-[2-(trifluoromethyl)benzyl]-6-({[2-(trifluoromethyl)phenyl]carbonyl}amino)-1H-benzimidazole-4-carboxamide]?
Answer: IC50 (A549 cells): 330 nM; IC50 (human mPGES-1): 120 nM

Question: For `COCc1nc2c(C(=O)Nc3cccc(Cl)c3C)cc(NC(=O)c3cc(F)ccc3C(F)(F)F)cc2[nH]1` [Example 112, N-(3-Chloro-2-methylphenyl)-6-({[5-fluoro-2-(trifluoromethyl)phenyl]carbonyl}amino)-2-(methoxymethyl)-1H-benzimidazole-4-carboxamide hydrochloride], which IC50 (A549 cells) is on record?
Answer: 187 nM

Question: And the IC50 (human mPGES-1)?
Answer: 2.6 nM

Question: For `Cc1ccc(NC(=O)c2cc(NC(=O)c3c(Cl)cccc3Cl)cc3[nH]c(N(C)C)nc23)cc1Cl` [Example 206, N-(3-Chloro-4-methylphenyl)-6-{[(2,6-dichlorophenyl)carbonyl]amino}-2-(dimethylamino)-1H-benzimidazole-4-carboxamide hydrochloride], which IC50 (A549 cells) is on record?
Answer: 74.5 nM

Question: And the IC50 (human mPGES-1)?
Answer: 3.2 nM

Question: Which results are given for `Cc1ccc(NC(=O)c2cc(NC(=O)c3cc(Cl)ccc3Cl)cc3[nH]c(C(C)(C)C)nc23)cc1Cl` [Example 88, 2-tert-Butyl-N-(3-chloro-4-methylphenyl)-6-{[(2,5-dichlorophenyl)carbonyl]amino}-1H-benzimidazole-4-carboxamide hydrochloride]?
Answer: IC50 (A549 cells): 9.2 nM; IC50 (human mPGES-1): 15.1 nM

Question: Which results are given for `CCOCCOc1ccc(Cl)c(C(=O)Nc2cc(C(=O)Nc3cccc(Cl)c3C)c3nc(COC)[nH]c3c2)c1` [Example 115, 6-({[2-Chloro-5-(2-ethoxyethoxy)phenyl]carbonyl}amino)-N-(3-chloro-2-methylphenyl)-2-(methoxymethyl)-1H-benzimidazole-4-carboxamide hydrochloride]?
Answer: IC50 (A549 cells): 37 nM; IC50 (human mPGES-1): 11.5 nM

Question: With `Cc1c(Cl)cccc1NC(=O)c1cc(NC(=O)c2ccccc2C(F)(F)F)cc2[nH]c(N[C@H](CO)C(C)(C)C)nc12` [Example 172, N-(3-Chloro-2-methylphenyl)-2-{[(2S)-1-hydroxy-3,3-dimethylbutan-2-yl]amino}-6-({[2-(trifluoromethyl)phenyl]carbonyl}amino)-1H-benzimidazole-4-carboxamide hydrochloride] as the compound, how does the IC50 (A549 cells) read?
Answer: 134 nM

Question: What about the IC50 (human mPGES-1) of the same compound?
Answer: 4.5 nM

Question: Which results are given for `COCC(C)(C)CNc1nc2c(C(=O)Nc3cccc(Cl)c3C)cc(NC(=O)c3cc(Cl)ccc3Cl)cc2[nH]1` [Example 190, N-(3-Chloro-2-methylphenyl)-6-{[(2,5-dichlorophenyl)carbonyl]amino}-2-[(3-methoxy-2,2-dimethylpropyl)amino]-1H-benzimidazole-4-carboxamide hydrochloride]?
Answer: IC50 (A549 cells): 7 nM; IC50 (human mPGES-1): 0.1 nM

Question: `Cc1c(Cl)cccc1NC(=O)c1cc(NC(=O)c2c(Cl)cccc2Cl)cc2[nH]c(N(C)C)nc12` [Example 183, N-(3-Chloro-2-methylphenyl)-6-{[(2,6-dichlorophenyl)carbonyl]amino}-2-(dimethylamino)-1H-benzimidazole-4-carboxamide hydrochloride] was tested. Which IC50 (A549 cells) did it give?
Answer: 6.1 nM

Question: And the IC50 (human mPGES-1)?
Answer: 1.9 nM

Question: `O=C(Nc1cc2c(c(C(=O)NC3CCCCC3)c1)OCC2)c1ccccc1C(F)(F)F` [Example 7, N-Cyclohexyl-5-({[2-(trifluoromethyl)phenyl]carbonyl}amino)-2,3-dihydro-1-benzofuran-7-carboxamide] was tested. Which IC50 (A549 cells) did it give?
Answer: 342 nM

Question: And the IC50 (human mPGES-1)?
Answer: 105 nM

Question: How did the IC50 (A549 cells) turn out when `CCCNC(=O)c1cc(NC(=O)c2ccccc2C(F)(F)F)cc2[nH]c(COC)nc12` [Example 215, 2-(Methoxymethyl)-N-propyl-6-({[2-(trifluoromethyl)phenyl]carbonyl}amino)-1H-benzimidazole-4-carboxamide hydrochloride] was run?
Answer: 772 nM

Question: What about the IC50 (human mPGES-1) of the same compound?
Answer: 140 nM

Question: For `COCc1nc2c(C(=O)Nc3cccc(Cl)c3C)cc(NC(=O)c3cc(Cl)ccc3Cl)cc2[nH]1` [Example 99, N-(3-Chloro-2-methylphenyl)-6-{[(2,5-dichlorophenyl)carbonyl]amino}-2-(methoxymethyl)-1H-benzimidazole-4-carboxamide hydrochloride], which IC50 (A549 cells) is on record?
Answer: 18.9 nM

Question: What about the IC50 (human mPGES-1) of the same compound?
Answer: 3.7 nM
